Assay results as given in US9067920B2, “Compounds useful for inhibiting Chk1” (Eli Lilly and Company, priority 2010, dated 2015).
pIC50: −log10 of the molar value. Where a name gives a salt, the structure may show the parent alone.

Key:
[1] = target: recombinant Chk2 protein kinase (Homo sapiens, UniProt O96017); test: Chk2 biochemical assay (CHK2/substrate peptide filter binding); conditions: 60 μM ATP, 1.4 nM Chk2 enzyme
Procedure: The effect of compounds on Chk2 biochemical activity can be determined using a CHK2/substrate peptide filter binding assay. In this assay, a synthetic peptide based on the amino acid sequence residues 206-225 of Cdc25C, is used as a phospho-acceptor substrate for recombinant Chk2 protein kinase. Using γ-^33P-ATP as the phospho-donor substrate, Chk2 transfers the radioactive γ-^33phosphate group to the synthetic peptide. The reaction is measured by capturing the peptide substrate on a cation exchange paper filter plate and scintillation counting of emitted beta particles.
The kinase reactions (40 μL reaction volumes) are performed in 96-well V-bottom polystyrene plates. Reactions are initiated with the addition of Chk2 enzyme. […]
Following Chk2 enzyme addition, the reactions are incubated at room temperature for 90 min, and then terminated with the addition of 140 μL of phosphoric acid. […] After sitting for 4 h at room temperature, the radioactivity in the plate is measured using a MicroBeta Trilux microplate scintillation counter (Perkin Elmer).
For IC50 determination, the percent inhibition for each concentration is calculated using the […] from controls run on each plate. […] Absolute IC50 values are calculated from the resulting curve. […]

[2] = tested on: HT-29 colon tumor xenograft; test: HT-29 tumor xenograft model, subcutaneous administration of Chk1 inhibitor; assay type: in vivo, nude mice
Procedure: (§1) The ability of Chk1 inhibitors to potentiate tumor killing by DNA damaging agents can be determined in vivo using the Calu-6 lung and HT-29 colon tumor xenograft efficacy models. Calu-6 lung cancer cells are cultured in growth media (MEM with Earle's Balanced Salt Solution with L-glutamine supplemented with 10% (v/v) heat inactivated FBS, 1×MEM non-essential amino acids, 1× sodium pyruvate) and HT-29 colon cancer cells (ATCC) are cultured in growth media, (McCoy's 5A medium supplemented with 10% FBS) and expanded.
(§2) Cells are harvested and washed twice with phosphate buffered saline and 5×10^6 cells (HT-29) or 1×10^6 a cells (Calu-6) in growth media (without serum) are mixed with equal volume of BD Matrigel™ matrix, then injected subcutaneously into the flank of nude mice (CD-1 nu/nu).
At about day 16 after implant ([…]), gemcitabine is formulated fresh in saline daily and administered to animals by intraperitoneal route at 60 mg/kg dose. Twenty four hours later animals are administered the compound of Example 3, in 0.2% Tween-80/0.5% methylcellulose subcutaneously BID. After […], dosing is repeated for three additional cycles (Q4Dx4 with the compound of Example 3 offset+24 hours), Tumor growth inhibition (TGI) is calculated as the percent reduction in mean tumor size of a compound treated group from the mean tumor size of the vehicle-treated control group. Compounds within the scope of the invention are tested in this assay run substantially as above.

[3] = tested on: Calu-6 lung tumor xenograft; test: Calu-6 tumor xenograft model, oral administration of Chk1 inhibitor; assay type: in vivo, nude mice
Procedure: as §1, §2
At about day 16 after implant (150-200 mm^3), gemcitabine is formulated fresh in saline daily and administered to animals by intraperitoneal route at 40 mg/kg dose. Twenty four hours later animals are administered Chk1 compound, in 0.2% Tween-80/0.5% methylcellulose by the oral route MD. After three days of rest, dosing was repeated for three additional cycles (Q5Dx4 with the compound of Example 3 offset+24 hours). Tumor growth inhibition (TGI) is calculated as described in the previous paragraph. Compounds within the scope of the invention are tested in this assay run substantially as above.

recombinant Chk2 protein kinase, sequence (O96017 whole entry, the tested form may be a part): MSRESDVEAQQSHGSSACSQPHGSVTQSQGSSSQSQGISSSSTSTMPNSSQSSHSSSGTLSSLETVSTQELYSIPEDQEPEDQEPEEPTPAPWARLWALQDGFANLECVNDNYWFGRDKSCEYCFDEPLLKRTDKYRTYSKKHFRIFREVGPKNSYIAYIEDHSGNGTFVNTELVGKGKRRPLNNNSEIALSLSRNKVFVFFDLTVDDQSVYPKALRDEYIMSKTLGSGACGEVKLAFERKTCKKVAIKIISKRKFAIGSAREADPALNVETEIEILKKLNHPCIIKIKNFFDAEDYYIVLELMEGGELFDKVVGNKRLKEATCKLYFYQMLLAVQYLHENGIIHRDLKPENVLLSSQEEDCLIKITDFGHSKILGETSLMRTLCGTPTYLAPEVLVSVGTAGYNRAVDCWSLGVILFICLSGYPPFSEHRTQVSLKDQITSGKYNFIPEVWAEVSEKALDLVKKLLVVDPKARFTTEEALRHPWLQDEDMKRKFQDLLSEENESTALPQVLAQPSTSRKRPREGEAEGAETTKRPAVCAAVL

SMILES	pIC50 [1]	% TGI at day 38 ([2]; HT29, Example 3 40 mpk subcutaneous BID alone)	anti-tumor activity in combination with gemcitabine ([2]; HT-29 xenograft, subcutaneous BID, gemcitabine 60 mg/kg ip)	increase in tumor growth inhibition over gemcitabine alone ([2]; subcutaneous, stated for HT-29 and Calu-6 models together)	% TGI at day 37 ([3]; Calu6, Example 3 30 mpk oral alone)	anti-tumor activity in combination with gemcitabine ([3]; Calu-6 xenograft, oral, gemcitabine 40 mg/kg ip)
COc1nc(C)ccc1-c1cc(Nc2cncc(O[C@@H]3CCCNC3)n2)[nH]n1 [Example 1, (R)-[5-(2-Methoxy-6-methyl-pyridin-3-yl)-2H-pyrazol-3-yl]-[6-(piperidin-3-yloxy)-pyrazin-2-yl]-amine]	7.96					
COc1nc(C)ccc1-c1cc(Nc2cncc(O[C@@H]3CCCNC3)n2)[nH]n1 [Example 3, (R)-[5-(2-Methoxy-6-methyl-pyridin-3-yl)-2H-pyrazol-3-yl]-[6-(piperidin-3-yloxy)-pyrazin-2-yl]-amine acetic acid salt]		26%	excellent dose dependent anti-tumor activity	up to a six-fold increase in tumor growth inhibition over gemcitabine alone	37%	excellent dose dependent anti-tumor activity
